# Laboratory results from US10738101B2, “Method for selecting odor-controlling substance” (Kao Corporation, priority 2015, dated 2020).
# Columns and labels:
# ethyl vanillin odor = experiment: Sensory test of cross-adaptation, target odor ethyl vanillin; type: in vivo, human; conditions: panelists
# OR5AN1 = molecular target: T1, OR5AN1 (Homo sapiens, UniProt Q8NGI8); experiment: Luciferase reporter gene assay, OR5AN1-expressing HEK293 cells; type: cell-based
# T1 construct: expressed in transfected cells; host or cells: HEK293
# T1 sequence (Q8NGI8 1-311): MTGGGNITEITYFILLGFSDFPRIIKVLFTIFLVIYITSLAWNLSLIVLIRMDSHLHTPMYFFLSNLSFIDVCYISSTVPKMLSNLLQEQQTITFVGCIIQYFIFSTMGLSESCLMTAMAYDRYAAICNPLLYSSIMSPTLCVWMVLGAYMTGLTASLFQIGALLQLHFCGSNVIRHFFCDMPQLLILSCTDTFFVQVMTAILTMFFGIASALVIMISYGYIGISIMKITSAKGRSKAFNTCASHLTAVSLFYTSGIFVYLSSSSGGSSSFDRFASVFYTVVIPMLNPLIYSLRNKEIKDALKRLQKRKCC
# Description: (§1) On the basis of sequence information registered in GenBank, genes respectively encoding 370 human olfactory receptors shown in Tables 1-1 and 1-2 and genes respectively encoding the human olfactory receptors OR5AN1, OR10G4 and OR9Q2 (respectively set forth in SEQ ID NOS: 1, 3 and 5) were cloned. Each of the genes was cloned by the PCR using human genomic DNA person (G1521: Promega) as a template. Each gene amplified by the PCR was incorporated into a pENTR vector (Invitrogen) in accordance with the instruction, and was recombined to NotI and AscI sites produced downstream from a Flag-Rho tag sequence on a pME18S vector by using NotI and AscI sites present on the pENTR vector.
# (§2) In 1) of Example 1, HEK293 cells on which the 370 human olfactory receptors were respectively expressed were produced. A reaction solution having a composition shown in Table 2 was prepared and allowed to stand still in a clean bench for 15 minutes, and the resultant was added by 4.4 μL per well in a 384-well plate (BioCoat). Subsequently, the HEK293 cells (20×10^4 cells/cm^2) were seeded by 40 μL per well, and the resultant was cultured for 24 hours in an incubator kept at 37° C. and 5% CO2.
# (§3) In 2) of Example 1 and Examples 2 and 3, HEK293 cells in which the human olfactory receptor OR5AN1, OR10G4, OR9Q2 or OR1A1 was expressed were produced. A reaction solution having a composition shown in Table 3 was prepared and allowed to stand still in a clean bench for 15 minutes, and the resultant was added by 10 μL per well in a 96-well plate (BioCoat). Subsequently, the HEK293 cells (3×10^5 cells/cm^2) were seeded by 90 μL per well, and the resultant was cultured for 24 hours in an incubator kept at 37° C. and 5% CO2. Cells obtained under conditions for not expressing the olfactory receptor (Mock) were also prepared to be used as a control, and were used similarly in an experiment.
# (§4) The olfactory receptor expressed on the HEK293 cells increases the intracellular cAMP amount by activating adenylate cyclase in conjugation with intracellular Gαs. In the measurement of odor response in this study, luciferase reporter gene assay for monitoring the increase of the intracellular cAMP amount as a luminescence value derived from a firefly luciferase gene (fluc2P-CRE-hygro) was employed. Besides, a fused Renilla luciferase (hRluc-CMV) gene was simultaneously transferred downstream of the CMV promoter, so as to be used as an internal standard for correcting the gene transfer efficiency or an error in the number of cells. For measuring the activity of the luciferase, Dual-Glo(™) Luciferase Assay System (Promega) was used, and the measurement was performed in accordance with the operation instruction of the product. Under each of various stimulation conditions, a value fLuc/hRluc obtained by dividing a firefly luciferase-derived luminescence value by a Renilla luciferase-derived luminescence value was calculated. A value obtained by dividing a value fLuc/hRluc induced by stimulation with an odorous substance by a value fLuc/hRluc of a cell not stimulated with the odorous substance was obtained as fold increase, which was used as an index of the response intensity. A dose-response curve was analyzed using Graph Pad Prism.
# The medium was removed from each of the cultures of the olfactory receptor expressing cells produced according to Reference Example 1, and an odorous substance (muscone, guaiacol or p-cresol) was added thereto. A DMEM medium (Nacalai) containing muscone or guaiacol was added to a 384-well plate containing the culture by 30 μL per well (to a final concentration of muscone of 100 μM and of guaiacol of 1 mM). Alternatively, a CD293 medium (Invitrogen) containing p-cresol was added to a 96-well plate containing the culture by 75 μL per well (to a final concentration of 1 mM). […]
# OR1A1 = molecular target: T2, OR1A1 (Homo sapiens, UniProt Q9P1Q5); experiment: Luciferase reporter gene assay, OR1A1-expressing HEK293 cells; type: cell-based; conditions: screen, muscone 100 μM, FIG. 1
# T2 construct: expressed in transfected cells; host or cells: HEK293
# T2 sequence (Q9P1Q5 1-309): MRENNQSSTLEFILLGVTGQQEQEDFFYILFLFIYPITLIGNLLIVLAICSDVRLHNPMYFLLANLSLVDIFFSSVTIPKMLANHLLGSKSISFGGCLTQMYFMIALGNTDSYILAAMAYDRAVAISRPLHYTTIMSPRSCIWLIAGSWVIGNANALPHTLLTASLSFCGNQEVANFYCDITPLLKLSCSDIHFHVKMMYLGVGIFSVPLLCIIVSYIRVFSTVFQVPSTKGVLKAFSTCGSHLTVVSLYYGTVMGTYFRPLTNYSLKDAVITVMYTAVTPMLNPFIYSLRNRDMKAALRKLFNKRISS
# Description: as §1, §2
# In 2) of Example 1 and Examples 2 and 3, HEK293 cells in which the human olfactory receptor OR5AN1, OR10G4, OR9Q2 or OR1A1 was expressed were produced. […]
# The olfactory receptor expressed on the HEK293 cells increases the intracellular cAMP amount by activating adenylate cyclase in conjugation with intracellular Gαs. In the measurement of odor response in this study, luciferase reporter gene assay for monitoring the increase of the intracellular cAMP amount as a luminescence value derived from a firefly luciferase gene (fluc2P-CRE-hygro) was employed. […] Under each of various stimulation conditions, a value fLuc/hRluc obtained by dividing a firefly luciferase-derived luminescence value by a Renilla luciferase-derived luminescence value was calculated. […] A dose-response curve was analyzed using Graph Pad Prism. […]
# OR10G4 = molecular target: T3, OR10G4 (Homo sapiens, UniProt Q8NGN3); experiment: Luciferase reporter gene assay, OR10G4-expressing HEK293 cells; type: cell-based; conditions: FIG. 5A, 5C
# T3 construct: expressed in transfected cells; host or cells: HEK293
# T3 sequence (Q8NGN3 1-311): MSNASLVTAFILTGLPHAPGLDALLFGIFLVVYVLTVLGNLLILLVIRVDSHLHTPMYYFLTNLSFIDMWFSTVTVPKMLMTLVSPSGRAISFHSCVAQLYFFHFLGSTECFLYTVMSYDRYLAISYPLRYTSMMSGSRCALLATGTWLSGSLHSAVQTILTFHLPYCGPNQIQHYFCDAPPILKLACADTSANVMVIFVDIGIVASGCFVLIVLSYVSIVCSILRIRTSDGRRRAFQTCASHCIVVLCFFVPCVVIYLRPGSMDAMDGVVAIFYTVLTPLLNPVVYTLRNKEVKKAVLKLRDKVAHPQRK
# Description: as §1, §2, §3
# as §4, with “For measuring the activity of the luciferase, Dual-Glo(™) Luciferase Assay System (Promega) was used, and the measurement was performed in accordance with the operation instruction of the product.” left out, “A value obtained by dividing a value fLuc/hRluc induced by stimulation with an odorous substance by a value fLuc/hRluc of a cell not stimulated with the odorous substance was obtained as fold increase, which was used as an index of the response intensity.” left out, “Prism. […]” for “Prism.”
smiles,measurement,setting,value
"C[C@@H]1CCCCCCCCCCCCC(=O)C1 [muscone, (R)-3-methyl-1-cyclopentadecanone]",cross-adaptation of ethyl vanillin odor induced by test substance,ethyl vanillin odor,not induced
same,activation of OR5AN1 response (fold increase),"OR5AN1; 0.3 μM to 100 μM, vs Mock cells, FIG. 3",activating the response
same,"responsiveness of OR5AN1 among 370 olfactory receptors (response intensity, fold increase)","OR5AN1; screen of 370 human olfactory receptors, muscone 100 μM, FIG. 1",highest responsiveness
same,responsiveness of OR1A1 compared with OR5AN1,OR1A1,weaker responsiveness
same,responsiveness of OR10G4 (fold increase),OR10G4,do not have responsiveness
